Measurements from patent publication US20240116856A1 (Young BioPharma, LLC, priority 2020, published 2024).
Several values for one entry are separate records, joined by “and”; a condition that tells them apart may be missing. Identical values can stand only once. Like-named read-outs stand apart in the source and are kept apart here.

Columns and labels:
human TRPV3 = molecular target: T1, human TRPV3 (Homo sapiens, UniProt Q8NET8); assay: In vitro Ca2+ flux counter-screen in human TRPV3 overexpressing cells; type: cell-based
T1 construct: expressed in transfected cells; host or cells: overexpressing cells
T1 sequence (Q8NET8 1-790): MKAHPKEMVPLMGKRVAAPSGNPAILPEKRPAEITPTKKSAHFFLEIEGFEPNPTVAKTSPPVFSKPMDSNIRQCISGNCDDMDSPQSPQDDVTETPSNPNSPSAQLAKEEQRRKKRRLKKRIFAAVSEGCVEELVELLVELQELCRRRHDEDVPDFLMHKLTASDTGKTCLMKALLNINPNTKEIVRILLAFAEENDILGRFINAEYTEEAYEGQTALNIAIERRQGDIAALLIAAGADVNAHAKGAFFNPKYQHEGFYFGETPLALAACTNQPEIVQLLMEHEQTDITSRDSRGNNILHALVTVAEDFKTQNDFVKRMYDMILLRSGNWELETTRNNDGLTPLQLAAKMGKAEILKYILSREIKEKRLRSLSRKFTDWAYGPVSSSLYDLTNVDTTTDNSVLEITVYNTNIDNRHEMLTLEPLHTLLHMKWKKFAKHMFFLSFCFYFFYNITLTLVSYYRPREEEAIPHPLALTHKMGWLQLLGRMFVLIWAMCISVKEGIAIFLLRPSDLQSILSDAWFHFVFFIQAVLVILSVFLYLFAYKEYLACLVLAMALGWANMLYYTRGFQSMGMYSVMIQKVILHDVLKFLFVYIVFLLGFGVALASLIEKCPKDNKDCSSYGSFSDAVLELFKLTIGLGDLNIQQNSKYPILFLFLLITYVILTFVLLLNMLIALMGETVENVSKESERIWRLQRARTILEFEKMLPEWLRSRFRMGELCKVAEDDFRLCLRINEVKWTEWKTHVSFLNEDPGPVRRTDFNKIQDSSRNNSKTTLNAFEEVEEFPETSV

MDA-MB-231 cell invasion = assay: Cancer cell invasion assay, MDA-MB-231; type: cell-based, human; conditions: 24 h
Method: A cancer cell invasion assay was developed based on literature protocols (Methods 2005, 37, 208; EMBO J 2002, 21, 6289; Cellular Signalling 2012, 24, 1276.). Membrane matrix gel (Cat #A1413201, ThermoFisher) was diluted in ice-cold, serum-free RPMI 1640 Medium (Cat #31800022, ThermoFisher) at a concentration of 0.5-0.6 mg/mL. Then it was added to the upper compartment (100 μL per cup) of millicell inserts (Cat #PI8P01250, ThermoFisher) placed in a 24-well plate (Part no. 229123, Celltreat). The plate was incubated at 37° C. for 2 h to allow the liquid gel to solidify. RPMI 1640 Medium supplemented with 10% FBS (300 μL) was added to the well of the plate (lower compartment) as attractant, then DMSO or compounds were added. Human cancer cells (1×10^5 cells in 200 μL of RPMI 1640 Medium) were added to the upper compartment of the insert, then DMSO or compounds were added. After the plate was incubated at 37° C. for 24 h, the cells were fixed on the lower side of the insert membrane with 4% formaldehyde and stained with 1% crystal violet (Part no. IS12146, Innovating Science). The invaded cells on the lower side of the filter were counted under an inverted microscope equipped with either a 4× or a 10× objective (FIG. 11). The cell numbers from 5 random views were averaged and plotted as percentage against the DMSO control (FIG. 12A).

NCI-H460 = assay: Human cancer cell growth inhibition assay (ATP assay), NCI-H460; type: cell-based; conditions: Homo sapiens, NCI-H460, 96 h
MDA-MB-231 = assay: Human cancer cell growth inhibition assay (ATP assay), MDA-MB-231; type: cell-based; conditions: Homo sapiens, MDA-MB-231, 96 h
OVCAR-8 = assay: Human cancer cell growth inhibition assay (ATP assay), OVCAR-8; type: cell-based; conditions: Homo sapiens, OVCAR-8, 96 h
human TRPA1 = molecular target: T2, human TRPA1 (Homo sapiens, UniProt O75762); assay: In vitro Ca2+ flux counter-screen in human TRPA1 overexpressing cells; type: cell-based
T2 construct: expressed in transfected cells; host or cells: overexpressing cells
T2 sequence (O75762 whole entry): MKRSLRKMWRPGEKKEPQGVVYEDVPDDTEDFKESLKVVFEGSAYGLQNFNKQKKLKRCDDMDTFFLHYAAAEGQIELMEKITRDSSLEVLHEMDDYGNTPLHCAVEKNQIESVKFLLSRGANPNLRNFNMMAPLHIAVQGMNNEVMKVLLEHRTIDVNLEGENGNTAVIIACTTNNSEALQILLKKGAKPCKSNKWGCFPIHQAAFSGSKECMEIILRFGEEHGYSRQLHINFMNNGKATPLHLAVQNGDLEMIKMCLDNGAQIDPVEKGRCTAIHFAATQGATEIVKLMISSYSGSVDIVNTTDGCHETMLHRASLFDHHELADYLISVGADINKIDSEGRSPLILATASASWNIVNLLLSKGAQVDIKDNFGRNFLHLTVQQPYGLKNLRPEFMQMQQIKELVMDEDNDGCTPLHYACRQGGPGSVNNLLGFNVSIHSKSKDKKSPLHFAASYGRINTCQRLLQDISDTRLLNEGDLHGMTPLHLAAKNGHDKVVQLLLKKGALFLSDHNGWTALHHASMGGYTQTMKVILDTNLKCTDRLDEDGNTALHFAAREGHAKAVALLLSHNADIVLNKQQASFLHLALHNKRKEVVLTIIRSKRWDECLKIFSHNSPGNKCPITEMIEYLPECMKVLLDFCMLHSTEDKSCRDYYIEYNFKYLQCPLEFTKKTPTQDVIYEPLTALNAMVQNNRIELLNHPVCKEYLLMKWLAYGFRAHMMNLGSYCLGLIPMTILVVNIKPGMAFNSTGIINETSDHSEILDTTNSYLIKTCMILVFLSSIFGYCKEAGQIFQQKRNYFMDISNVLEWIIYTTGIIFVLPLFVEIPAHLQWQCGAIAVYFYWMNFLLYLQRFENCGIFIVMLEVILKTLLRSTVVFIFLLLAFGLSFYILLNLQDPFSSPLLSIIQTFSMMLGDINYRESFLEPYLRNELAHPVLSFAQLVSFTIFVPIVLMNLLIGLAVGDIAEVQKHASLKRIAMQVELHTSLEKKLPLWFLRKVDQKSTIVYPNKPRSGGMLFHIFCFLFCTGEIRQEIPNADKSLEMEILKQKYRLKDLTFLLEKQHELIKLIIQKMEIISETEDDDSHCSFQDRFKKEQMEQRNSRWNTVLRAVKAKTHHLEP

human TRPV1 = molecular target: T3, human TRPV1 (Homo sapiens, UniProt Q8NER1); assay: In vitro Ca2+ flux assay in human TRPV1 transfected HEK 293 cells; type: cell-based; conditions: Means±SEM from three independent experiments
T3 construct: DYK (FLAG) tag from vector pcDNA3.1+/C-(K)DYK (C); host or cells: FreeStyle 293-F cells (HEK 293), transient transfection
T3 sequence (Q8NER1 whole entry): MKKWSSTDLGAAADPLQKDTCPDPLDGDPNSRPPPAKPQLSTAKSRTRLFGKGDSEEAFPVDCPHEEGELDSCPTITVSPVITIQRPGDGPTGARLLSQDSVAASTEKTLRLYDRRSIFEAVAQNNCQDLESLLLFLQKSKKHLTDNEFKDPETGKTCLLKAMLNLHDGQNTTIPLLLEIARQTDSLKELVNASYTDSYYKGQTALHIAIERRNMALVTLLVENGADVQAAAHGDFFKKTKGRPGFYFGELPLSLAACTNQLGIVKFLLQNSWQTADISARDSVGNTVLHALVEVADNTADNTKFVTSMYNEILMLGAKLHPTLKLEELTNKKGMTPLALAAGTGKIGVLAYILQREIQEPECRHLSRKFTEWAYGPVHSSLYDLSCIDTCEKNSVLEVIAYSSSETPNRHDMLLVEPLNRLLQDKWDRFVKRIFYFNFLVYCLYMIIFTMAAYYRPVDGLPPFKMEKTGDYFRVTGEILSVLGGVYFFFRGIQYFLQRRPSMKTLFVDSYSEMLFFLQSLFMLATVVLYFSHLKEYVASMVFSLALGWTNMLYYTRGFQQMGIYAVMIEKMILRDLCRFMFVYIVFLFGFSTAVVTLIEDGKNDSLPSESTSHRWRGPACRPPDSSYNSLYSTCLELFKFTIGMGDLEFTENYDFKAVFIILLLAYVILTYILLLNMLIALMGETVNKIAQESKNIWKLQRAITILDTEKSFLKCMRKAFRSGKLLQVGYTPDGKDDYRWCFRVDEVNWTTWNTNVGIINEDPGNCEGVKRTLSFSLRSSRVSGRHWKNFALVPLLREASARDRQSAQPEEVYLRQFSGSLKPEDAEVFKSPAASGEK

[1] = system: Src protein activation in MDA-MB-231 cells; assay: Cancer cell immunocytochemistry assay, Phospho-Src (Y416), MDA-MB-231; type: cell-based, human; conditions: at about 40% of IC50 concentration from cell growth inhibition assay, 4 h
Method: Human cancer cells (15,000 cells/well) in 96 well half area microplate (Cat #3882, Corning) were incubated overnight at 37° C., then compounds or DMSO control were added to the cell culture and incubated at 37° C. for 1-6 h. The cells were sequentially fixed with 4% formalin, permeabilized with 0.5% Triton X-100, blocked with 5% BSA in PBS, incubated with Human Phospho-Src (Y416) Antibody (Cat #MAB2685, R&D Systems) at rt for 2 h, incubated with the secondary antibody Goat Ant-Rabbit IgG H&L (Alexa Fluor 488) (Cat #ab150077, abeam) for 45 min, and incubated with DAPI (Cat #D9542, Sigma-Aldrich) for 5 min. Finally, the cells were washed and covered with PBS. The cell images were visualized on an inverted fluorescence microscope (Leica DMIL Fluorescent Inverted Microscope with Digital Camera, Leica Microsystems). Pictures were taken [FIGS. 14A-C. Green: Human Phospho-Src (Y416), the activated form of the Src protein; Blue: DAPI (stain nucleus of cell)]. The fluorescence intensity values from 5 random cells were averaged, subtracted by the background value (area between cells) and the blank value [the blank control without the Human Phospho-Src (Y416) Antibody], then plotted as percentage against the DMSO control to indicate the effects of compound treatment on the cellular Src kinase phosphorylation levels in the cancer cells (FIGS. 15A-D).

[2] = counter-screen, read-out: TRPV3 EC50
[3] = 4 days, Means±SEM from three independent experiments, read-out: NCl-H460, IC50
[4] = 4 days, Means±SEM from three independent experiments, read-out: MDA-MB-231, IC50
[5] = 4 days, Means±SEM from three independent experiments, read-out: OVCAR-8, IC50
[6] = counter-screen, read-out: TRPA1 EC50

SMILES	EC50 (human TRPV3; [2])	IC50 (NCI-H460; [3])	IC50 (MDA-MB-231; [4])	IC50 (OVCAR-8; [5])	EC50 (human TRPA1; [6])	EC50 (human TRPV1; read-out: TRPV1 EC50)	inhibition of MDA-MB-231 cell invasion (MDA-MB-231 cell invasion)	IC50 (NCI-H460; read-out: NCl-H460, IC50, μM)	IC50 (MDA-MB-231; read-out: MDA-MB-231, IC50, μM)	IC50 (OVCAR-8; read-out: OVCAR-8, IC50, μM)	cellular Src kinase phosphorylation levels [1]	EC50 (human TRPV3)	EC50 (human TRPV1; TRPV1 EC50 (μM))	EC50 (human TRPA1)
COc1cc(CC2=NCC(c3ccccc3)O2)ccc1O (stereo not shown) [YB-3]	> 10 µM	320 ± 86 µM	430 ± 90 µM	500 ± 120 µM	> 10 µM		dose-dependently inhibited							
COc1cc(CC2=NCC(c3ccc(C(F)(F)F)cc3)O2)ccc1O (stereo not shown) [YB-4]	> 10 µM	270 ± 45 µM	469 ± 130 µM	300 ± 60 µM	> 10 µM		dose-dependently inhibited							
COc1cc(CC2=NCC(c3ccc(-c4ccccc4)cc3)O2)ccc1O (stereo not shown) [YB-5]	> 10 µM	210 ± 48 µM	542 ± 101 µM	150 ± 42 µM	> 10 µM		dose-dependently inhibited							
COc1cc(CNC(=O)CCCC/C=C/C(C)C)ccc1NS(C)(=O)=O [YB-6]	> 10 µM	400 ± 46 µM	867 ± 72 µM	400 ± 51 µM	> 10 µM		dose-dependently inhibited							
COc1cc(CNC(=O)CCCC/C=C/C(C)C)ccc1N(S(C)(=O)=O)S(C)(=O)=O [YB-7]	> 10 µM	200 ± 49 µM	386 ± 107 µM	310 ± 45 µM	> 10 µM		dose-dependently inhibited							
CNc1ccc(CNC(=O)CCCC/C=C/C(C)C)cc1OC [YB-8]	> 10 µM	250 ± 23 µM	311 ± 31 µM	500 ± 81 µM	> 10 µM		dose-dependently inhibited							
COc1cc(CC(=O)N/C=C/c2ccc(Cl)cc2)ccc1O [YB-10]	> 10 µM	73 ± 18 µM	115 ± 28 µM	34 µM	> 10 µM	< 0.1 µM and 0.012 to 0.048 µM	dose-dependently inhibited							
COc1cc(CC(=O)N/C=C/c2ccc(-c3ccccc3)cc2)ccc1O [YB-12]	> 10 µM	61 ± 21 µM	136 ± 29 µM	129 ± 20 µM	> 10 µM		dose-dependently inhibited							
COCCOCCOCCC(=O)Nc1ccc(CNC(=O)CCCC/C=C/C(C)C)cc1OC [YB-13]	> 10 µM	100 ± 11 µM	107 ± 7.5 µM	200 ± 16 µM	> 10 µM		dose-dependently inhibited							
COc1ccc(/C=C/NC(=O)Cc2ccc(O)c(OC)c2)cc1 [YB-14]	> 10 µM	> 300 µM	300 ± 46 µM	500 ± 57 µM	> 10 µM									
COc1cc(CC(=O)N/C=C/c2cccc(C(F)(F)F)c2)ccc1O [YB-15]	> 10 µM	> 300 µM	250 ± 38 µM	101 ± 17 µM	> 10 µM	< 0.1 µM and 0.012 to 0.048 µM								
COc1cc(CC(=O)N/C=C/c2ccc(C(F)(F)F)cc2)ccc1N [YB-17]	> 10 µM				> 10 µM	0.34 to 1.1 µM		139 ± 19 µM	140 ± 22 µM	161 ± 26 µM				
COc1cc(CC(=O)N/C=C/c2ccc(Cl)cc2)ccc1N [YB-18]	> 10 µM	133 ± 18 µM	69 ± 16 µM	200 ± 21 µM	> 10 µM	0.34 to 1.1 µM								
COc1cc(CC(=O)N/C=C/c2ccc(C(F)(F)F)cc2)ccc1OC(=O)N1CCCCC1CN(C)C(=O)OC(C)(C)C (stereo not shown) [YB-31]												> 10 µM	> 10 µM	> 10 µM
CNCC1CCCCN1C(=O)Oc1ccc(CC(=O)N/C=C/c2ccc(C(F)(F)F)cc2)cc1OC (stereo not shown) [YB-35]												> 10 µM	0.71 ± 0.14 µM	> 10 µM

Now from value to compound, other results behind:

EC50 (human TRPV3; [2])	IC50 (NCI-H460; [3])	IC50 (MDA-MB-231; [4])	IC50 (OVCAR-8; [5])	EC50 (human TRPA1; [6])	EC50 (human TRPV1; read-out: TRPV1 EC50)	SMILES	inhibition of MDA-MB-231 cell invasion (MDA-MB-231 cell invasion)	IC50 (NCI-H460; read-out: NCl-H460, IC50, μM)	IC50 (MDA-MB-231; read-out: MDA-MB-231, IC50, μM)	IC50 (OVCAR-8; read-out: OVCAR-8, IC50, μM)	cellular Src kinase phosphorylation levels [1]	EC50 (human TRPV3)	EC50 (human TRPV1; TRPV1 EC50 (μM))	EC50 (human TRPA1)
> 10 µM	117 ± 16 µM	103 ± 18 µM	100 ± 15 µM	> 10 µM		COc1cc(CC(=O)N/C=C/c2ccc(-c3ccccc3)cc2)ccc1N [YB-19]								
> 10 µM	279 ± 42 µM	86 ± 14 µM	283 ± 38 µM	> 10 µM		COc1ccc(/C=C/NC(=O)Cc2ccc(N)c(OC)c2)cc1 [YB-20]								
> 10 µM	103 ± 13 µM	101 ± 20 µM	65 ± 14 µM	> 10 µM	0.34 to 1.1 µM	COc1cc(CC(=O)N/C=C/c2cccc(C(F)(F)F)c2)ccc1N [YB-21]	dose-dependently inhibited							
> 10 µM	84 ± 12 µM	74 µM	58 µM	> 10 µM		COc1cc(CC(=O)N/C=C/c2cc(C(F)(F)F)cc(C(F)(F)F)c2)ccc1O [YB-22]	dose-dependently inhibited				significantly reduced the cellular Src kinase phosphorylation levels			
> 10 µM	88 µM	90 ± 12 µM	73 µM	> 10 µM		COc1cc(CC(=O)N/C=C/c2ccc(C#N)cc2)ccc1O [YB-23]	dose-dependently inhibited				significantly reduced the cellular Src kinase phosphorylation levels			
> 10 µM				> 10 µM	> 10 µM	COc1cc(CC(=O)N/C=C/c2ccc(C(F)(F)F)cc2)ccc1NC(=O)CCCC/C=C/C(C)C [YB-29]								
> 10 µM				> 10 µM	8.8 ± 0.9 µM	COc1cc(CC(=O)N/C=C/c2ccc(C(F)(F)F)cc2)ccc1NC(C)=O [YB-30]								
